Test results as given in PubChem BioAssay AID1745844 (Carcinogenic Potency Database (CPDB), 2022).
Several values for one entry are separate records, joined by “and”; a condition that tells them apart may be missing. Equal entries are not always repeated.

Test system: rodent lifetime carcinogenesis bioassay, tumor incidence TD50
Assay: chronic cancer bioassays in animals – CPDB, compiled studies (AID 1745844)
Conditions: in feed
[1] = mouse, strain B6C3F1, females, site: liver, lesion: hepatocellular carcinoma, dosed 91 weeks, study length 91 weeks
[2] = mouse, strain B6C3F1, females, site: liver, lesion: several types, types named in the paper, dosed 91 weeks, study length 91 weeks
[3] = mouse, strain B6C3F1, females, site: liver, lesion: several types, types named in the paper, dosed 100 weeks, study length 100 weeks

Q: For `CNc1ccc(N(CCO)CCO)cc1[N+](=O)[O-]`, which TD50 (mouse, strain B6C3F1, females, site: any site (literature study), lesion: several types, types named in the paper, dosed 103 weeks, study length 104 weeks) is on record?
A: Its TD50 is 373 mg/kg/day.

Q: What about the TD50 (mouse, strain B6C3F1, females, site: liver, lesion: hepatocellular adenoma + hepatocellular carcinoma + neoplastic nodule, dosed 103 weeks, study length 104 weeks) of the same molecule?
A: The TD50 was 179 mg/kg/day.

Q: And the TD50 (mouse, strain B6C3F1, females, site: liver, lesion: hepatocellular adenoma + hepatocellular carcinoma, dosed 103 weeks, study length 104 weeks)?
A: Its TD50 is 179 mg/kg/day.

Q: What about the TD50 (mouse, strain B6C3F1, females, site: liver, lesion: hepatocellular adenoma, dosed 38 weeks, study length 100 weeks) of the same molecule?
A: Its TD50 is 165 mg/kg/day.

Q: And the TD50 (mouse, strain B6C3F1, females, site: liver, lesion: hepatocellular adenoma, dosed 64 weeks, study length 100 weeks)?
A: Its TD50 is 969 mg/kg/day.

Q: What about the TD50 (mouse, strain B6C3F1, females, site: liver, lesion: hepatocellular adenoma, dosed 103 weeks, study length 104 weeks) of the same molecule?
A: The TD50 was 697 mg/kg/day.

Q: And the TD50 (mouse, strain B6C3F1, females, site: liver, lesion: hepatocellular carcinoma, dosed 38 weeks, study length 100 weeks)?
A: The TD50 was 114 mg/kg/day.

Q: And the TD50 (mouse, strain B6C3F1, females, site: liver, lesion: hepatocellular carcinoma, dosed 64 weeks, study length 100 weeks)?
A: The TD50 was 94 mg/kg/day.

Q: What about the TD50 [1] of the same molecule?
A: The TD50 was 88.9 mg/kg/day and 148 mg/kg/day.

Q: And the carcinogen call [1]?
A: The carcinogen call was “positive”.

Q: What about the TD50 (mouse, strain B6C3F1, females, site: liver, lesion: hepatocellular carcinoma, dosed 100 weeks, study length 100 weeks) of the same molecule?
A: Its TD50 is 115 mg/kg/day and 163 mg/kg/day and 87.1 mg/kg/day.

Q: And the TD50 (mouse, strain B6C3F1, females, site: liver, lesion: hepatocellular carcinoma, dosed 103 weeks, study length 104 weeks)?
A: Its TD50 is 208 mg/kg/day.

Q: What about the TD50 (mouse, strain B6C3F1, females, site: liver, lesion: several types, types named in the paper, dosed 38 weeks, study length 100 weeks) of the same molecule?
A: The TD50 was 41.3 mg/kg/day.

Q: And the TD50 (mouse, strain B6C3F1, females, site: liver, lesion: several types, types named in the paper, dosed 64 weeks, study length 100 weeks)?
A: The TD50 was 81.5 mg/kg/day.

Q: And the TD50 [2]?
A: The TD50 was 85 mg/kg/day.

Q: What about the carcinogen call [2] of the same molecule?
A: Its carcinogen call is “positive”.

Q: What about the TD50 [3] of the same molecule?
A: The TD50 was 70.6 mg/kg/day and 51.4 mg/kg/day.

Q: And the carcinogen call [3]?
A: The carcinogen call was “positive”.

Q: And the TD50 (mouse, strain B6C3F1, males, site: any site (literature study), lesion: several types, types named in the paper, dosed 103 weeks, study length 104 weeks)?
A: Its TD50 is 561 mg/kg/day.

Q: What about the TD50 (mouse, strain B6C3F1, males, site: liver + thyroid gland, lesion: hepatocellular carcinoma + follicular-cell adenoma, dosed 103 weeks, study length 104 weeks) of the same molecule?
A: Its TD50 is 369 mg/kg/day.

Q: What about the TD50 (mouse, strain B6C3F1, males, site: liver, lesion: hepatocellular adenoma + hepatocellular carcinoma + neoplastic nodule, dosed 103 weeks, study length 104 weeks) of the same molecule?
A: The TD50 was 259 mg/kg/day.

Q: What about the TD50 (mouse, strain B6C3F1, males, site: liver, lesion: hepatocellular adenoma + hepatocellular carcinoma, dosed 103 weeks, study length 104 weeks) of the same molecule?
A: The TD50 was 259 mg/kg/day.

Q: What about the TD50 (mouse, strain B6C3F1, males, site: liver, lesion: hepatocellular adenoma, dosed 103 weeks, study length 104 weeks) of the same molecule?
A: Its TD50 is 286 mg/kg/day.

Q: And the TD50 (mouse, strain B6C3F1, males, site: liver, lesion: hepatocellular carcinoma, dosed 103 weeks, study length 104 weeks)?
A: Its TD50 is 389 mg/kg/day.

Q: What about the TD50 (mouse, strain B6C3F1, males, site: thyroid gland, lesion: follicular-cell adenoma, dosed 103 weeks, study length 104 weeks) of the same molecule?
A: Its TD50 is 2230 mg/kg/day.

Q: What about the TD50 (rat, strain Fischer 344, females, site: liver, lesion: hepatocellular adenoma + hepatocellular carcinoma + neoplastic nodule, dosed 103 weeks, study length 104 weeks) of the same molecule?
A: The TD50 was 3310 mg/kg/day.

Q: And the TD50 (rat, strain Fischer 344, females, site: lung, lesion: alveolar/bronchiolar adenoma + alveolar/bronchiolar carcinoma, dosed 103 weeks, study length 104 weeks)?
A: The TD50 was 702 mg/kg/day.

Q: What about the TD50 (rat, strain Fischer 344, females, site: lung, lesion: alveolar/bronchiolar carcinoma, dosed 103 weeks, study length 104 weeks) of the same molecule?
A: Its TD50 is 1190 mg/kg/day.

Q: What about the TD50 (rat, strain Fischer 344, females, site: uterus, lesion: endometrial stromal polyp, dosed 103 weeks, study length 104 weeks) of the same molecule?
A: Its TD50 is 429 mg/kg/day.

Q: What about the TD50 (rat, strain Fischer 344, males, site: liver, lesion: hepatocellular adenoma + hepatocellular carcinoma + neoplastic nodule, dosed 103 weeks, study length 104 weeks) of the same molecule?
A: The TD50 was 938 mg/kg/day.

Q: And the TD50 (rat, strain Fischer 344, males, site: liver, lesion: hepatocellular carcinoma + neoplastic nodule, dosed 103 weeks, study length 104 weeks)?
A: Its TD50 is 938 mg/kg/day.

Q: And the TD50 (rat, strain Fischer 344, males, site: liver, lesion: neoplastic nodule, dosed 103 weeks, study length 104 weeks)?
A: Its TD50 is 1660 mg/kg/day.
